Values after ≈ are worked out from the molar mass of the structure shown. Blank lines part the entries; values can stand above or below the compound they belong to. Active and inactive are the calls of the source. The calls are words filed in the database; no cut-off is given here.
Legend:
[1] = Clearance in Sprague-Dawley rat at 10 mg/kg, iv measured upto 24 hrs LC-MS/MS analysis; format: ADME, organism-based; conditions: in vivo
[2] = Half life in Sprague-Dawley rat at 10 mg/kg, iv measured upto 24 hrs LC-MS/MS analysis; format: ADME, organism-based; conditions: in vivo
[3] = AUC (0 to t) in Sprague-Dawley rat at 10 mg/kg, iv measured upto 24 hrs LC-MS/MS analysis; format: ADME, organism-based; conditions: in vivo; for AUC(0-t) at 24 h: Sprague-Dawley
[4] = Volume of distribution at steady state in Sprague-Dawley rat at 10 mg/kg, iv measured upto 24 hrs LC-MS/MS analysis; format: ADME, organism-based; conditions: in vivo, read-out: Vdss
[5] = MRT in Sprague-Dawley rat at 10 mg/kg, iv measured upto 24 hrs LC-MS/MS analysis; format: ADME, organism-based; conditions: in vivo
[6] = system: Acinetobacter baumannii; assay: Antibacterial activity against Acinetobacter baumannii 17-8 assessed as inhibition of bacterial growth measured after 18 to 20 hrs by broth microdilution method; format: functional; conditions: time 18-20 hrs
[7] = system: Pseudomonas aeruginosa; assay: Antibacterial activity against Pseudomonas aeruginosa T-2022 assessed as inhibition of bacterial growth measured after 18 to 20 hrs by broth microdilution method; format: functional; conditions: time 18-20 hrs
[8] = system: Escherichia coli; assay: Antibacterial activity against Escherichia coli 14-2 assessed as inhibition of bacterial growth measured after 18 to 20 hrs by broth microdilution method; format: functional; conditions: time 18-20 hrs
[9] = system: Pseudomonas aeruginosa; assay: Antibacterial activity against Pseudomonas aeruginosa 17-1 assessed as inhibition of bacterial growth measured after 18 to 20 hrs by broth microdilution method; format: functional; conditions: time 18-20 hrs
[10] = system: Escherichia coli; assay: Antibacterial activity against Escherichia coli 14-4 assessed as inhibition of bacterial growth measured after 18 to 20 hrs by broth microdilution method; format: functional; conditions: time 18-20 hrs
[11] = system: Klebsiella pneumoniae; assay: Antibacterial activity against Klebsiella pneumoniae 15-1 assessed as inhibition of bacterial growth measured after 18 to 20 hrs by broth microdilution method; format: functional; conditions: time 18-20 hrs
[12] = system: Klebsiella pneumoniae; assay: Antibacterial activity against Klebsiella pneumoniae 15-4 assessed as inhibition of bacterial growth measured after 18 to 20 hrs by broth microdilution method; format: functional; conditions: time 18-20 hrs
[13] = system: Pseudomonas aeruginosa; assay: Antibacterial activity against Pseudomonas aeruginosa 19-5 assessed as inhibition of bacterial growth measured after 18 to 20 hrs by broth microdilution method; format: functional; conditions: time 18-20 hrs
[14] = system: Acinetobacter baumannii; assay: Antibacterial activity against Acinetobacter baumannii 17-2 assessed as inhibition of bacterial growth measured after 18 to 20 hrs by broth microdilution method; format: functional; conditions: time 18-20 hrs
[15] = system: Escherichia coli; assay: Antibacterial activity against Escherichia coli ATCC 35218 assessed as inhibition of bacterial growth measured after 18 to 20 hrs by broth microdilution method; format: functional; conditions: time 18-20 hrs
[16] = system: Klebsiella pneumoniae; assay: Antibacterial activity against Klebsiella pneumoniae 15-5 assessed as inhibition of bacterial growth measured after 18 to 20 hrs by broth microdilution method; format: functional; conditions: time 18-20 hrs
[17] = system: Pseudomonas aeruginosa; assay: Antibacterial efficacy against multi drug resistant Pseudomonas aeruginosa T-2022-D2-048 infected in cyclophosphamide-induced neutropenic thigh infection ICR mouse model assessed as decrease in bacterial burden at 40 mg/kg, iv dose measured after 24 hrs; format: functional, organism-based
[18] = system: Pseudomonas aeruginosa; assay: Antibacterial activity against multi drug resistant Pseudomonas aeruginosa T-2022-D2-048 infected in cyclophosphamide-induced neutropenic thigh infection ICR mouse model assessed as reduction in log CFU at 12 mg/kg, iv measured after 24 hrs; format: functional
[19] = MRT in Sprague-Dawley rat at 10 mg/kg, po measured upto 24 hrs LC-MS/MS analysis; format: ADME, organism-based; conditions: in vivo
[20] = AUC (0 to t) in Sprague-Dawley rat at 10 mg/kg, po measured upto 24 hrs LC-MS/MS analysis; format: ADME, organism-based; conditions: in vivo
[21] = Oral bioavailability in Sprague-Dawley rat at 10 mg/kg measured upto 24 hrs LC-MS/MS analysis; format: ADME, organism-based; conditions: in vivo
[22] = Cmax in Sprague-Dawley rat at 10 mg/kg, po measured upto 24 hrs LC-MS/MS analysis; format: ADME, organism-based; conditions: in vivo
[23] = Half life in Sprague-Dawley rat at 10 mg/kg, po measured upto 24 hrs LC-MS/MS analysis; format: ADME, organism-based; conditions: in vivo
[24] = Tmax in Sprague-Dawley rat at 10 mg/kg, po measured upto 24 hrs LC-MS/MS analysis; format: ADME, organism-based; conditions: in vivo
[25] = system: Jurkat; assay: Cytotoxicity against human Jurkat cells assessed as inhibition of cell growth incubated for 24 hrs by CCK8 method; format: functional, cell-based
[26] = system: HepG2; assay: Cytotoxicity against human HepG2 cells assessed as inhibition of cell growth at 100 uM incubated for 24 hrs by CCK8 method relative to control; format: functional
[27] = system: Acinetobacter baumannii; assay: Antibacterial activity against Acinetobacter baumannii; format: functional
[28] = system: Jurkat; assay: Cytotoxicity against human Jurkat cells assessed as inhibition of cell growth at 100 uM incubated for 24 hrs by CCK8 method relative to control; format: functional
[29] = Cytotoxicity against HEK293T cells assessed as inhibition of cell growth incubated for 24 hrs by CCK8 method; format: toxicity, cell-based, HEK-293T; conditions: human
[30] = system: HepG2; assay: Cytotoxicity against human HepG2 cells assessed as inhibition of cell growth incubated for 24 hrs by CCK8 method; format: functional, cell-based; conditions: HepG2, 24 h
[31] = system: Pseudomonas aeruginosa; assay: Antibacterial activity against Pseudomonas aeruginosa; format: functional
[32] = Cytotoxicity against HEK293T cells assessed as inhibition of cell growth at 100 uM incubated for 24 hrs by CCK8 method relative to control; format: toxicity, cell-based, HEK-293T; conditions: human
[33] = system: Pseudomonas aeruginosa; assay: Antibacterial efficacy against multi drug resistant Pseudomonas aeruginosa T-2022-D2-048 infected in cyclophosphamide-induced neutropenic thigh infection ICR mouse model assessed as decrease in bacterial burden administered as iv dose measured after 24 hrs; format: functional, organism-based; conditions: dose 3-12 mg/kg

SMILES: C[C@@H](O)[C@H]1C(=O)N2C(C(=O)O)=C(S[C@@H]3CN[C@H](C(=O)N(C)C)C3)[C@H](C)[C@H]12 [MEROPENEM]
MIC [6]: > 64 µg/mL
MIC [7]: > 64 µg/mL
MIC [8]: 2 µg/mL (≈ 5.22 µM)
MIC [9]: 8 µg/mL (≈ 20.9 µM)
MIC [10]: 2 µg/mL (≈ 5.22 µM)
MIC [11]: > 64 µg/mL
MIC [12]: > 64 µg/mL
MIC [13]: 32 µg/mL (≈ 83.4 µM)
MIC [14]: > 64 µg/mL
MIC [15]: 0.06 µg/mL (≈ 0.156 µM)
MIC [16]: > 64 µg/mL
Activity [17]: Active

SMILES: Cc1nc(-c2ccc(CSSC(C)(C)C)cc2)ncc1C(=O)N[C@@H](CCN)C(=O)N(C)[C@@H]1C(=O)N[C@@H](C)C(=O)N[C@H](C(=O)NCC#N)Cc2ccc(OCCN)c(c2)-c2cc1ccc2OCCN [listing 1 of 2 here]
log CFU reduction [18]: 3.5 log CFU/g
MIC [7]: 4 µg/mL (≈ 4.13 µM)
clearance [1]: 1.16 mL/min/kg
MRT [19]: 5.63 h
half-life [2]: 4.18 h
AUC(0-t) at 24 h ([20]; Sprague-Dawley): 70.1 ng·h/mL
AUC(0-t) at 24 h [3]: 142000 ng·h/mL
bioavailability ([21]; Sprague-Dawley): 0.05%
Cmax [22]: 11.5 ng/mL
half-life [23]: 2.83 h
Tmax [24]: 3.33 h
Vd [4]: 0.435 L/kg
MRT [5]: 6.27 h

SMILES: C[C@H]1COc2c(N3CCN(C)CC3)c(F)cc3c(=O)c(C(=O)O)cn1c23 [LEVOFLOXACIN ANHYDROUS]
MIC [7]: > 64 µg/mL

SMILES: Cc1nc(-c2ccc(C(C)(C)C)cc2)ncc1C(=O)N[C@@H](CCN)C(=O)N(C)[C@@H]1C(=O)N[C@@H](C)C(=O)N[C@H](C(=O)NCC#N)Cc2ccc(OCCN)c(c2)-c2cc1ccc2OCCN.Cl.Cl.Cl.Cl
IC50 [25]: > 100 µM
MIC [6]: 1 µg/mL
MIC [7]: 8 µg/mL
inhibition at 100 µM [26]: -3.46%
MIC [8]: ≤ 0.03 µg/mL
clearance [1]: 2.71 mL/min/kg
MRT [19]: 2.69 h
half-life [2]: 1.51 h
MIC90 [27]: 4 µg/mL
MIC [9]: 32 µg/mL
inhibition at 100 µM [28]: 20.8%
MIC [10]: ≤ 0.03 µg/mL
AUCt ([20]; po, 10 mg/kg, 24 h): 9.01 ng·h/mL
MIC [11]: ≤ 0.03 µg/mL
IC50 at 24 h [29]: > 100 µM
MIC [12]: 0.125 µg/mL
IC50 [30]: > 100 µM
MIC [13]: 16 µg/mL
AUCt ([3]; iv, 10 mg/kg, 24 h): 61496 ng·h/mL
MIC [14]: 2 µg/mL
MIC90 [31]: 16 µg/mL
F ([21]; po, 10 mg/kg, 24 h): 0.1%
MIC [15]: ≤ 0.03 µg/mL
Cmax [22]: 3.37 ng/mL
half-life [23]: 1.56 h
Tmax [24]: 1.17 h
Vd [4]: 0.423 L/kg
inhibition at 24 h, 100 µM [32]: 37.9%
MRT [5]: 2.62 h
MIC [16]: 0.06 µg/mL
Activity [33]: inactive

SMILES: Cc1nc(-c2ccc(CSSC(C)(C)C)cc2)ncc1C(=O)N[C@@H](CCN)C(=O)N(C)[C@@H]1C(=O)N[C@@H](C)C(=O)N[C@H](C(=O)NCC#N)Cc2ccc(OCCN)c(c2)-c2cc1ccc2OCCN [listing 2 of 2 here]
Activity [33]: Dose-Dependent Effect

Results, then the compound that gave them:

clearance [1]: 10.8 mL/min/kg
half-life [2]: 0.37 h
AUC(0-t) at 24 h [3]: 15300 ng·h/mL
Vd [4]: 0.285 L/kg
MRT [5]: 0.44 h
SMILES: CCCSSCc1ccc(-c2ncc(C(=O)N[C@@H](CCN)C(=O)N(C)[C@@H]3C(=O)N[C@@H](C)C(=O)N[C@H](C(=O)NCC#N)Cc4ccc(OCCN)c(c4)-c4cc3ccc4OCCN)c(C)n2)cc1

clearance [1]: 3.6 mL/min/kg
half-life [2]: 1.04 h
AUC(0-t) at 24 h [3]: 46300 ng·h/mL
Vd [4]: 0.273 L/kg
MRT [5]: 1.27 h
SMILES: CCCCSSCc1ccc(-c2ncc(C(=O)N[C@@H](CCN)C(=O)N(C)[C@@H]3C(=O)N[C@@H](C)C(=O)N[C@H](C(=O)NCC#N)Cc4ccc(OCCN)c(c4)-c4cc3ccc4OCCN)c(C)n2)cc1

clearance [1]: 0.954 mL/min/kg
half-life [2]: 2.8 h
AUC(0-t) at 24 h [3]: 170000 ng·h/mL
Vd [4]: 0.252 L/kg
MRT [5]: 4.4 h
SMILES: Cc1nc(-c2ccc(SSC(C)(C)C)cc2)ncc1C(=O)N[C@@H](CCN)C(=O)N(C)[C@@H]1C(=O)N[C@@H](C)C(=O)N[C@H](C(=O)NCC#N)Cc2ccc(OCCN)c(c2)-c2cc1ccc2OCCN
